According to patent US20180199575A1, “SUBSTITUTED OXOTETRAHYDROQUINOLINYLPHOSPHINIC ACID AND PHOSPHINIC ACID AMIDES OR SALTS THEREOF AND USE THEREOF TO INCREASE STRESS TOLERANCE IN PLANTS” (priority 2015, published 2018):

Molecular target: T1, phosphatase ABI1 via the co-regulator RCAR11/PYR1 (Arabidopsis thaliana, UniProt O49686+P49597)
T1 sequence (O49686 1-191): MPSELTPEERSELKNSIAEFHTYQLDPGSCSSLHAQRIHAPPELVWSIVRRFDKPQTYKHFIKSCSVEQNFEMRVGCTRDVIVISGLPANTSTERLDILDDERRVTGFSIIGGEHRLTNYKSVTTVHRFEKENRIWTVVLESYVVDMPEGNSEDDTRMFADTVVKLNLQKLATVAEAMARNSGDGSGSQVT
T1 sequence (P49597 1-434): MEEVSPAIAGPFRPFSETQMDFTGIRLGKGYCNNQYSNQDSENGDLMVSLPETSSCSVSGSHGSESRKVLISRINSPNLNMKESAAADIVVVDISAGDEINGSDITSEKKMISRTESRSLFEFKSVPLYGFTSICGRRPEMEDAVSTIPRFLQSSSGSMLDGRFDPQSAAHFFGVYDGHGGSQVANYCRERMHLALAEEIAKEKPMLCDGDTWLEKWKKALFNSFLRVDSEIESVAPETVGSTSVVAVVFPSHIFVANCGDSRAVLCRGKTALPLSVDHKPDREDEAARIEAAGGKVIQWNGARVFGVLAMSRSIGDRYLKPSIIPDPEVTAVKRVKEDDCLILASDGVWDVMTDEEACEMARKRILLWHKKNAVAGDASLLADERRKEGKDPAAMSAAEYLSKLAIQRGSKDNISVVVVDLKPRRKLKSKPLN
Experiment: In vitro assay: inhibition of the phosphatase ABI1 via the co-regulator RCAR11/PYR1 (dephosphorylation of 4-methylumbelliferyl phosphate, fluorescence)
Assay type: biochemical
Conditions: 5 μM substance in a solution of DMSO and water, MUP substrate
Description: Effects of the phytohormone abscisic acid (ABA) on the behavior of plants under abiotic stress and the mechanism of action of ABA are described in the literature (cf. Abrams et al., WO97/23441, Park et al. Science, 2009, 324, 1068; Grill et al. Science, 2009, 324, 1064; Tanokura et al. Biophysics, 2011, 7, 123; Schroeder et al. Plant J. 2010, 61, 290). Therefore, it is possible with the aid of a suitable in vitro test system to derive a correlation between the action of ABA and the stress response of a plant under abiotic stress. In the event of water deficiency (drought stress), plants form the phytohormone abscisic acid (ABA). […]
The assay described hereinafter utilizes the inhibition of the phosphatase ABI1 via the co-regulator RCAR11/PYR1 aus Arabidopsis thaliana. For the determination of activity, the dephosphorylation of 4-methylumbelliferyl phosphate (MUP) was measured at 460 nm. […]
Enzyme buffer mix and substrate mix were made up 5 minutes prior to the addition and warmed to a temperature of 35° C. […] Finally, a relative fluorescence measurement was made at 35° C. with a BMG Labtech “POLARstar Optima” microplate reader using a 340/10 nm excitation filter and a 460 nm emission filter. […]

CC1=CC(=O)CC(C)(C)[C@@]1(O)/C=C/C(C)=C\C(=O)O [abscisic acid]
ABI1 inhibition: ++++ (inhibition≥90%)
